# According to PubChem BioAssay (NCI):
#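 Exposure lasted 48 hours, with cells grown in 96-well plates and compounds tested at five concentrations. Here, GI50 denotes the concentration required for 50% inhibition of growth. TGI denotes the concentration required for complete inhibition of growth.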
# What was measured:
# Assay in all cases: inhibition of tumour cell growth, NCI panel, 48 h
# RXF 393 renal = tested on: RXF 393 renal
# CAKI-1 renal = tested on: CAKI-1 renal
# SW-620 colon = tested on: SW-620 colon
# IGROV1 ovarian = tested on: IGROV1 ovarian
# OVCAR-8 ovarian = tested on: OVCAR-8 ovarian
# HL-60(TB) leukemia = tested on: HL-60(TB) leukemia
# U251 CNS = tested on: U251 CNS
# SK-MEL-5 melanoma = tested on: SK-MEL-5 melanoma
# OVCAR-5 ovarian = tested on: OVCAR-5 ovarian
# MALME-3M melanoma = tested on: MALME-3M melanoma
SMILES,GI50 (RXF 393 renal),TGI (RXF 393 renal),GI50 (CAKI-1 renal),TGI (CAKI-1 renal),GI50 (SW-620 colon),TGI (SW-620 colon),GI50 (IGROV1 ovarian),TGI (IGROV1 ovarian),GI50 (OVCAR-8 ovarian),TGI (OVCAR-8 ovarian),GI50 (HL-60(TB) leukemia),TGI (HL-60(TB) leukemia),GI50 (U251 CNS),TGI (U251 CNS),GI50 (SK-MEL-5 melanoma),TGI (SK-MEL-5 melanoma),TGI (OVCAR-5 ovarian),GI50 (OVCAR-5 ovarian),GI50 (MALME-3M melanoma),TGI (MALME-3M melanoma)
O=C(Nc1sc2c(c1C(=O)O)CCCC2)c1ccco1,> 50 µM,> 50 µM,44.1 µM,> 50 µM,> 50 µM,> 50 µM,> 50 µM,> 50 µM,> 50 µM,> 50 µM,> 50 µM,> 50 µM,16.4 µM,> 50 µM,> 50 µM,> 50 µM,–,–,–,–
O=C(Nc1ccc(Cl)cc1C(F)(F)F)C(=O)Nn1c(=S)[nH]c2ccccc2c1=O,–,> 100 µM,–,> 100 µM,–,> 100 µM,–,–,–,> 100 µM,–,> 100 µM,–,> 100 µM,–,> 100 µM,> 100 µM,–,–,–
O=S(=O)(NC1=NCCN1C(=S)SN1CCn2c1nsc2=S)c1ccc(Cl)cc1,3.09 µM,34.4 µM,6.49 µM,27.7 µM,4.42 µM,17.9 µM,10.2 µM,23.4 µM,7.13 µM,> 100 µM,–,–,10.9 µM,24.4 µM,8.99 µM,21.7 µM,36.5 µM,17.9 µM,4.75 µM,18.1 µM
CC(C)(C)C#COC(=O)c1ccccc1,–,–,–,> 100 µM,–,> 100 µM,–,> 100 µM,–,> 100 µM,–,> 100 µM,–,> 100 µM,–,> 100 µM,> 100 µM,–,–,> 100 µM
COc1c2ccoc2nc2c(OC)c(OCC(O)C(C)(C)O)ccc12 (stereo not given),–,–,–,> 100 µM,–,> 100 µM,–,> 100 µM,–,> 100 µM,–,> 100 µM,–,> 100 µM,–,> 100 µM,> 100 µM,–,–,> 100 µM
CC(C)C[C@@H](N)[C@@H](O)C(=O)N[C@H](C(=O)N[C@H](C(=O)N[C@@H](CC(=O)O)C(=O)O)C(C)C)C(C)C,–,–,> 20 µM,> 20 µM,> 20 µM,> 20 µM,> 20 µM,> 20 µM,> 20 µM,> 20 µM,–,–,> 20 µM,> 20 µM,> 20 µM,> 20 µM,> 20 µM,> 20 µM,> 20 µM,> 20 µM
O=c1c(Cc2ccccc2)c(O)cc2n1CCC2,–,> 100 µM,–,> 100 µM,–,> 100 µM,–,> 100 µM,–,> 100 µM,–,–,–,> 100 µM,–,> 100 µM,> 100 µM,–,–,> 100 µM
CC1=NN(c2cccc(Cl)c2)C(=O)/C1=C\c1cn(CC(O)CN2CCCCC2)c2ccccc12 (stereo not given),4.97 µM,17.5 µM,1.83 µM,5.33 µM,1.73 µM,3.53 µM,2.99 µM,14.6 µM,6.93 µM,92.9 µM,2.89 µM,14.4 µM,3.64 µM,14 µM,3.34 µM,10.9 µM,33.9 µM,14.6 µM,–,–
COc1ccc(-c2ccc(CC(=O)O)cc2)cc1OC,–,–,–,> 100 µM,–,> 100 µM,–,–,–,> 100 µM,–,> 100 µM,–,> 100 µM,–,> 100 µM,> 100 µM,–,–,> 100 µM
c1cnc2c(c1)-n1cccc1C1(CCCCC1)NN2,–,–,–,> 100 µM,–,> 100 µM,–,–,–,> 100 µM,–,> 100 µM,–,–,–,> 100 µM,> 100 µM,–,–,> 100 µM
Cc1cc2c(c(C(=O)O)c1C)-c1cccc(Cl)c1C2=O,–,> 100 µM,–,> 100 µM,–,> 100 µM,–,> 100 µM,–,> 100 µM,–,–,–,> 100 µM,–,> 100 µM,> 100 µM,–,–,> 100 µM
CN1CCCC2[C@@H]3CCC4c5nonc5CC[C@]4(C)C3CC[C@@]21C (stereo not given in full),–,> 100 µM,–,> 100 µM,–,> 100 µM,–,> 100 µM,–,> 100 µM,–,–,–,> 100 µM,–,> 100 µM,> 100 µM,–,–,> 100 µM
CCN(CC)C(=S)SSC(C)C,16.5 µM,31.5 µM,5.99 µM,19.2 µM,3.01 µM,14 µM,–,–,15.1 µM,35.4 µM,5.63 µM,29.8 µM,13.8 µM,32.1 µM,11.6 µM,24.2 µM,32.6 µM,18.3 µM,13.7 µM,30 µM
COc1cc(C)c2c(c1)CN1CN2Cc2cc(OC)cc(C)c21,–,–,–,> 100 µM,–,> 100 µM,–,> 100 µM,–,> 100 µM,–,64.2 µM,–,> 100 µM,–,14.4 µM,> 100 µM,–,–,> 100 µM
Cc1ccccc1NC(=O)CSc1nnc(-c2ccc(N=Cc3ccc(Cl)cc3)cc2)o1,–,> 100 µM,–,–,–,> 100 µM,–,–,–,> 100 µM,–,> 100 µM,–,> 100 µM,–,> 100 µM,–,–,–,> 100 µM
Cc1cccc(N2C(=O)/C(=C/C(Cl)=C/c3ccc([N+](=O)[O-])cc3)SC2=S)c1C,1.63 µM,3.52 µM,–,–,1.95 µM,4.77 µM,–,–,1.08 µM,> 100 µM,1.91 µM,6.94 µM,1.95 µM,5.94 µM,1.49 µM,2.91 µM,5.67 µM,2.43 µM,–,–
COc1ccc(-n2cc(-c3ccc(OC)c(OC)c3)[nH]c2=O)cc1,–,–,> 100 µM,> 100 µM,> 100 µM,> 100 µM,> 100 µM,> 100 µM,–,–,> 100 µM,> 100 µM,> 100 µM,> 100 µM,> 100 µM,> 100 µM,> 100 µM,> 100 µM,> 100 µM,> 100 µM
COc1ccc(-c2ccc(C3CC(c4ccccc4)=NN3)o2)c([N+](=O)[O-])c1 (stereo not given),40 µM,> 100 µM,34.4 µM,> 100 µM,47.5 µM,> 100 µM,> 100 µM,> 100 µM,51.2 µM,> 100 µM,24.9 µM,64.8 µM,57.3 µM,> 100 µM,–,–,> 100 µM,> 100 µM,–,–
Cc1n[nH]c2ccccc2c1=O,–,> 100 µM,–,> 100 µM,–,> 100 µM,–,> 100 µM,–,> 100 µM,–,–,–,> 100 µM,–,> 100 µM,> 100 µM,–,–,> 100 µM
